Laboratory results as given in PMC5218480 (PLoS ONE, 2017).

Tested on: MV-4-11 cells
Assay: Gene expression microarray analysis (Affymetrix PrimeView) and GSEA
Format: cell-based, human
Design: RFU PODN (11730768_x_at) / Fold change /veh PODN (11730768_x_at) / RFU LINC00158 (11744669_a_at) / Fold change /veh LINC00158 (11744669_a_at) / RFU DUSP10 (11751237_a_at) / Fold change /veh DUSP10 (11751237_a_at) / RFU ID3 (11757404_x_at) / Fold change /veh ID3 (11757404_x_at) / RFU PLEKHG5 (11737974_s_at) / Fold change /veh PLEKHG5 (11737974_s_at) / RFU LRRC4B (11730491_at) / Fold change /veh LRRC4B (11730491_at) / RFU GIMAP4 (11747438_a_at) / Fold change /veh GIMAP4 (11747438_a_at) / RFU KRT8 (11758183_x_at) / Fold change /veh KRT8 (11758183_x_at) / RFU CNN1 (11734310_a_at) / Fold change /veh CNN1 (11734310_a_at) / RFU VPS37D (11726825_at) / Fold change /veh VPS37D (11726825_at) / RFU C10orf10 (11716522_x_at) / Fold change /veh C10orf10 (11716522_x_at) / RFU KIR2DL2 /// KIR2DL4 /// KIR2DL5A /// KIR2DL5B /// KIR2DS1 /// KIR2DS2 /// KIR2DS3 /// KIR2DS4 /// KIR3DL3 /// KIR3DL3 /// KIR3DS1 (11738374_at) / Fold change /veh KIR2DL2 /// KIR2DL4 /// KIR2DL5A /// KIR2DL5B /// KIR2DS1 /// KIR2DS2 /// KIR2DS3 /// KIR2DS4 /// KIR3DL3 /// KIR3DL3 /// KIR3DS1 (11738374_at) / RFU C1QL1 (11718748_at) / Fold change /veh C1QL1 (11718748_at) / RFU TMPRSS4 (11747572_a_at) / Fold change /veh TMPRSS4 (11747572_a_at) / RFU HAMP (11756126_x_at) / Fold change /veh HAMP (11756126_x_at) / RFU RNFT2 (11725882_a_at) / Fold change /veh RNFT2 (11725882_a_at) / RFU NR4A2 (11747474_a_at) / Fold change /veh NR4A2 (11747474_a_at) / RFU ABCC12 (11746883_a_at) / Fold change /veh ABCC12 (11746883_a_at) / RFU TMEM136 (11760407_x_at) / Fold change /veh TMEM136 (11760407_x_at) / RFU CLDN22 /// WWC2 (11732394_at) / Fold change /veh CLDN22 /// WWC2 (11732394_at) / RFU HLA-DPB1 (11760878_x_at) / Fold change /veh HLA-DPB1 (11760878_x_at) / RFU SPINT1 (11716480_a_at) / Fold change /veh SPINT1 (11716480_a_at) / RFU GAP43 (11754022_s_at) / Fold change /veh GAP43 (11754022_s_at) / RFU A4GNT (11735810_at) / Fold change /veh A4GNT (11735810_at) / RFU PRB3 (11715151_x_at) / Fold change /veh PRB3 (11715151_x_at) / RFU TUBB4B (11761932_at) / Fold change /veh TUBB4B (11761932_at) / RFU CAPN14 (11732068_a_at) / Fold change /veh CAPN14 (11732068_a_at) / RFU TMCC2 (11721928_a_at) / Fold change /veh TMCC2 (11721928_a_at) / RFU IRGQ (11745062_a_at) / Fold change /veh IRGQ (11745062_a_at) / RFU FAM174B (11720279_a_at) / Fold change /veh FAM174B (11720279_a_at) / RFU TMPRSS4 (11748680_a_at) / Fold change /veh TMPRSS4 (11748680_a_at) / RFU FAM212B (11763350_a_at) / Fold change /veh FAM212B (11763350_a_at) / RFU PLEKHG5 (11743358_a_at) / Fold change /veh PLEKHG5 (11743358_a_at) / RFU ZSCAN30 (11745921_a_at) / Fold change /veh ZSCAN30 (11745921_a_at) / RFU CMKLR1 (11741424_a_at) / Fold change /veh CMKLR1 (11741424_a_at) / RFU LOC101060620 /// MAPK8IP1 (11723275_at) / Fold change /veh LOC101060620 /// MAPK8IP1 (11723275_at) / RFU SPTSSB (11747773_x_at) / Fold change /veh SPTSSB (11747773_x_at) / RFU PRSS12 (11739890_at) / Fold change /veh PRSS12 (11739890_at) / RFU BIN1 (11741810_x_at) / Fold change /veh BIN1 (11741810_x_at) / RFU WNT11 (11732464_a_at) / Fold change /veh WNT11 (11732464_a_at) / RFU C10orf10 (11716521_a_at) / Fold change /veh C10orf10 (11716521_a_at) / RFU C5orf56 (11738089_at) / Fold change /veh C5orf56 (11738089_at) / RFU CYB561 (11721691_x_at) / Fold change /veh CYB561 (11721691_x_at) / RFU ANKRD19P (11752326_a_at) / Fold change /veh ANKRD19P (11752326_a_at) / RFU OR2T12 /// OR2T33 /// OR2T8 (11738714_s_at) / Fold change /veh OR2T12 /// OR2T33 /// OR2T8 (11738714_s_at) / RFU VCAN (11748164_a_at) / Fold change /veh VCAN (11748164_a_at) / RFU JSRP1 (11732532_at) / Fold change /veh JSRP1 (11732532_at) / RFU KRTAP10-11 (11738290_x_at) / Fold change /veh KRTAP10-11 (11738290_x_at) / RFU MYO3A (11730013_a_at) / Fold change /veh MYO3A (11730013_a_at) / RFU EBF3 (11725865_a_at) / Fold change /veh EBF3 (11725865_a_at) / RFU CAMK2N1 (11719241_x_at) / Fold change /veh CAMK2N1 (11719241_x_at) / RFU C5orf56 (11738088_a_at) / Fold change /veh C5orf56 (11738088_a_at) / RFU OLFML3 (11715873_a_at) / Fold change /veh OLFML3 (11715873_a_at) / RFU LOC100653217 /// NTM (11731650_a_at) / Fold change /veh LOC100653217 /// NTM (11731650_a_at) / RFU MAPK11 (11762145_a_at) / Fold change /veh MAPK11 (11762145_a_at) / RFU FIZ1 (11724087_x_at) / Fold change /veh FIZ1 (11724087_x_at) / RFU OASL (11726364_x_at) / Fold change /veh OASL (11726364_x_at) / RFU SOX15 (11748057_x_at) / Fold change /veh SOX15 (11748057_x_at) / RFU CD79A (11719716_a_at) / Fold change /veh CD79A (11719716_a_at) / RFU HIST1H1D (11736915_at) / Fold change /veh HIST1H1D (11736915_at) / RFU CASKIN2 (11723855_a_at) / Fold change /veh CASKIN2 (11723855_a_at) / RFU LOC730098 (11760151_x_at) / Fold change /veh LOC730098 (11760151_x_at) / RFU OR4N2 (11742367_at) / Fold change /veh OR4N2 (11742367_at) / RFU PRRT2 (11749266_a_at) / Fold change /veh PRRT2 (11749266_a_at) / RFU SNX32 (11753110_a_at) / Fold change /veh SNX32 (11753110_a_at) / RFU CDHR5 (11726645_a_at) / Fold change /veh CDHR5 (11726645_a_at) / RFU RCAN1 (11760418_a_at) / Fold change /veh RCAN1 (11760418_a_at) / RFU FAM167A (11723789_a_at) / Fold change /veh FAM167A (11723789_a_at) / RFU FAM26E (11764081_at) / Fold change /veh FAM26E (11764081_at) / RFU ISYNA1 (11749810_s_at) / Fold change /veh ISYNA1 (11749810_s_at) / RFU ACY1 (11761880_at) / Fold change /veh ACY1 (11761880_at) / RFU 11764098_at / Fold change /veh 11764098_at / RFU SAMD14 (11745864_x_at) / Fold change /veh SAMD14 (11745864_x_at) / RFU NPB (11741838_a_at) / Fold change /veh NPB (11741838_a_at) / RFU TMPRSS6 (11731388_a_at) / Fold change /veh TMPRSS6 (11731388_a_at) / RFU KRTAP10-2 (11738614_at) / Fold change /veh KRTAP10-2 (11738614_at) / RFU ARHGAP8 /// PRR5-ARHGAP8 (11727945_x_at) / Fold change /veh ARHGAP8 /// PRR5-ARHGAP8 (11727945_x_at) / RFU KRTAP5-7 /// NADSYN1 (11734609_at) / Fold change /veh KRTAP5-7 /// NADSYN1 (11734609_at) / RFU RASL12 (11751679_a_at) / Fold change /veh RASL12 (11751679_a_at) / RFU CDKN2B (11736163_a_at) / Fold change /veh CDKN2B (11736163_a_at) / RFU PRF1 (11729649_at) / Fold change /veh PRF1 (11729649_at) / RFU, ZNF638 /// ZNF638-IT1 / Fold change vs veh, ZNF638 /// ZNF638-IT1 / RFU, PANK3 / Fold change vs veh, PANK3 / RFU, SH3YL1 / Fold change vs veh, SH3YL1 / RFU, ZEB2 / Fold change vs veh, ZEB2 / RFU, NRIP1 / Fold change vs veh, NRIP1 / RFU, PTTG1IP / Fold change vs veh, PTTG1IP / RFU, CAPN2 / Fold change vs veh, CAPN2 / RFU, MED14 / Fold change vs veh, MED14 / RFU, SNORA58 / Fold change vs veh, SNORA58 / RFU, C1orf63 / Fold change vs veh, C1orf63 / RFU, LRRFIP1 / Fold change vs veh, LRRFIP1 / RFU, NDUFAF7 / Fold change vs veh, NDUFAF7 / RFU, SLC12A2 / Fold change vs veh, SLC12A2 / RFU, IBTK / Fold change vs veh, IBTK / RFU, ESF1 / Fold change vs veh, ESF1 / Fold change vs veh, TMEM50B / RFU, TAOK1 / Fold change vs veh, TAOK1 / RFU, ACBD3 / Fold change vs veh, ACBD3 / RFU, TMA16 / Fold change vs veh, TMA16 / RFU, RWDD3 / Fold change vs veh, RWDD3 / RFU, BCAT1 / Fold change vs veh, BCAT1 / RFU, EDEM3 / Fold change vs veh, EDEM3 / RFU, TMEM33 / Fold change vs veh, TMEM33 / RFU, WDR75 / Fold change vs veh, WDR75 / RFU, AHCTF1 / Fold change vs veh, AHCTF1 / RFU, TFRC / Fold change vs veh, TFRC / RFU, ZDHHC17 / Fold change vs veh, ZDHHC17 / RFU, NOM1 / Fold change vs veh, NOM1 / RFU, ARL8B / Fold change vs veh, ARL8B / RFU, ZBTB11 / Fold change vs veh, ZBTB11 / RFU, TAMM41 / Fold change vs veh, TAMM41 / RFU, KIAA1704 /// LOC100996395 / Fold change vs veh, KIAA1704 /// LOC100996395 / RFU, ING1 / Fold change vs veh, ING1 / RFU, TRMT61B / Fold change vs veh, TRMT61B / RFU, FUBP3 / Fold change vs veh, FUBP3 / RFU, TP53 / Fold change vs veh, TP53 / RFU, TNKS2 / Fold change vs veh, TNKS2 / RFU, ZFP14 / Fold change vs veh, ZFP14 / RFU, ACTR2 / Fold change vs veh, ACTR2 / RFU, PPP3R1 / Fold change vs veh, PPP3R1 / RFU, PIK3R1 / Fold change vs veh, PIK3R1 / RFU, HNRNPA1 / Fold change vs veh, HNRNPA1 / RFU, RNF170 / Fold change vs veh, RNF170 / RFU, ZNF28 / Fold change vs veh, ZNF28 / RFU, RNGTT / Fold change vs veh, RNGTT / RFU, OGT / Fold change vs veh, OGT / RFU, BRD1 / Fold change vs veh, BRD1 / RFU, MARS / Fold change vs veh, MARS / RFU, ZNF655 / Fold change vs veh, ZNF655 / RFU, FAHD1 / Fold change vs veh, FAHD1 / RFU, BDP1 / Fold change vs veh, BDP1 / RFU, LRRCC1 / Fold change vs veh, LRRCC1 / RFU, ARID1A / Fold change vs veh, ARID1A / RFU, ZNF146 / Fold change vs veh, ZNF146 / RFU, ZNF330 / Fold change vs veh, ZNF330 / RFU, GPN3 / Fold change vs veh, GPN3 / RFU, C9orf123 / Fold change vs veh, C9orf123 / RFU, N4BP2L2 / Fold change vs veh, N4BP2L2 / RFU, ARFIP1 / Fold change vs veh, ARFIP1 / RFU, FAM179B / Fold change vs veh, FAM179B / RFU, BCL10 / Fold change vs veh, BCL10 / RFU, UHRF1BP1L / Fold change vs veh, UHRF1BP1L / RFU, BET1 / Fold change vs veh, BET1 / RFU, CNOT2 / Fold change vs veh, CNOT2 / RFU, ZNF268 / Fold change vs veh, ZNF268 / Fold change vs veh, ZNF507 / RFU, DGCR2 / Fold change vs veh, DGCR2 / RFU, WDSUB1 / Fold change vs veh, WDSUB1 / Fold change vs veh, HSP90B1 /// MIR3652 / RFU, ADSS / Fold change vs veh, ADSS / RFU, GK / Fold change vs veh, GK / RFU, ZNF148 / Fold change vs veh, ZNF148 / RFU, TAF9 / Fold change vs veh, TAF9 / RFU, SLC1A5 / Fold change vs veh, SLC1A5 / RFU, SLMO2 / Fold change vs veh, SLMO2 / RFU, ABCC4 / Fold change vs veh, ABCC4 / RFU, LOC101060439 /// RAP1B / Fold change vs veh, LOC101060439 /// RAP1B / RFU, RFX7 / Fold change vs veh, RFX7 / RFU, GTPBP10 / Fold change vs veh, GTPBP10 / RFU, CNEP1R1 / Fold change vs veh, CNEP1R1 / RFU, BIVM-ERCC5 /// ERCC5 / Fold change vs veh, BIVM-ERCC5 /// ERCC5 / RFU, ILF3 / Fold change vs veh, ILF3 / RFU 11762660_at / Fold change /veh 11762660_at / RFU VCAN (11757783_s_at) / Fold change /veh VCAN (11757783_s_at) / RFU DDX43 (11728927_at) / Fold change /veh DDX43 (11728927_at) / RFU KRT8 (11758188_x_at) / Fold change /veh KRT8 (11758188_x_at) / RFU NKD1 (11759106_at) / Fold change /veh NKD1 (11759106_at) / RFU SRD5A1 (11742802_a_at) / Fold change /veh SRD5A1 (11742802_a_at) / RFU TPSAB1 /// TPSB2 (11721975_s_at) / Fold change /veh TPSAB1 /// TPSB2 (11721975_s_at) / RFU GSTM3 (11746129_a_at) / Fold change /veh GSTM3 (11746129_a_at) / RFU IL23R (11737362_x_at) / Fold change /veh IL23R (11737362_x_at) / RFU TMEM51 (11727254_a_at) / Fold change /veh TMEM51 (11727254_a_at) / RFU PIWIL2 (11732686_x_at) / Fold change /veh PIWIL2 (11732686_x_at) / RFU ORM1 (11744905_x_at) / Fold change /veh ORM1 (11744905_x_at) / RFU CCDC152 (11743942_at) / Fold change /veh CCDC152 (11743942_at) / RFU ECM1 (11717891_a_at) / Fold change /veh ECM1 (11717891_a_at) / RFU IL23R (11748794_a_at) / Fold change /veh IL23R (11748794_a_at) / RFU TNFAIP8L3 (11732012_x_at) / Fold change /veh TNFAIP8L3 (11732012_x_at) / RFU MBOAT4 (11741988_at) / Fold change /veh MBOAT4 (11741988_at) / RFU 11764193_at / Fold change /veh 11764193_at / RFU TMEM53 (11763286_at) / Fold change /veh TMEM53 (11763286_at) / RFU MAGEB2 (11727129_at) / Fold change /veh MAGEB2 (11727129_at) / RFU TMEM200A (11744735_a_at) / Fold change /veh TMEM200A (11744735_a_at) / RFU CCDC152 (11751479_a_at) / Fold change /veh CCDC152 (11751479_a_at) / RFU FAM211A (11726209_a_at) / Fold change /veh FAM211A (11726209_a_at) / RFU RGS16 (11746705_a_at) / Fold change /veh RGS16 (11746705_a_at) / RFU VCAN (11755009_s_at) / Fold change /veh VCAN (11755009_s_at) / RFU RHOB (11743442_s_at) / Fold change /veh RHOB (11743442_s_at) / RFU RGS16 (11720943_a_at) / Fold change /veh RGS16 (11720943_a_at) / RFU RGS16 (11720944_at) / Fold change /veh RGS16 (11720944_at) / RFU, VPS4B / Fold change vs veh, VPS4B / RFU, CREB1 / Fold change vs veh, CREB1 / RFU, DNAJC13 / Fold change vs veh, DNAJC13 / RFU, GNAQ / Fold change vs veh, GNAQ / RFU, CDK5R1 / Fold change vs veh, CDK5R1 / RFU, ZRANB3 / Fold change vs veh, ZRANB3 / RFU, CUL4A / Fold change vs veh, CUL4A / RFU, CCNY / Fold change vs veh, CCNY / RFU, UFL1 / Fold change vs veh, UFL1 / RFU, COG3 / Fold change vs veh, COG3 / RFU, DIAPH2 / Fold change vs veh, DIAPH2 / RFU, SKA2 / Fold change vs veh, SKA2 / RFU, AFF3 / Fold change vs veh, AFF3 / RFU, LMF1 / Fold change vs veh, LMF1 / RFU, IPO11 / Fold change vs veh, IPO11 / RFU, DFFB / Fold change vs veh, DFFB / RFU, FOXP1 / Fold change vs veh, FOXP1 / RFU, CARD8 / Fold change vs veh, CARD8 / RFU, STRN3 / Fold change vs veh, STRN3 / RFU, ADK / Fold change vs veh, ADK / RFU, RASSF2 / Fold change vs veh, RASSF2 / RFU, WIPF1 / Fold change vs veh, WIPF1 / RFU, LARP1B / Fold change vs veh, LARP1B / RFU, RASA1 / Fold change vs veh, RASA1 / RFU, RB1 / Fold change vs veh, RB1 / RFU, PPFIA1 / Fold change vs veh, PPFIA1 / RFU, MAT2A / Fold change vs veh, MAT2A / RFU, CCT5 / Fold change vs veh, CCT5 / RFU, WDR92 / Fold change vs veh, WDR92 / RFU, CUX1 / Fold change vs veh, CUX1 / RFU, TTC7A / Fold change vs veh, TTC7A / RFU, TMEM135 / Fold change vs veh, TMEM135 / RFU, DEPTOR / Fold change vs veh, DEPTOR / RFU, CPM / Fold change vs veh, CPM / RFU, DNAJB6 / Fold change vs veh, DNAJB6 / RFU, CACNA2D3 / Fold change vs veh, CACNA2D3 / RFU, DTX4 / Fold change vs veh, DTX4 / RFU, TFCP2 / Fold change vs veh, TFCP2 / RFU, GMCL1 /// GMCL1P1 / Fold change vs veh, GMCL1 /// GMCL1P1 / RFU, AEBP2 / Fold change vs veh, AEBP2 / RFU, SNHG1 /// SNORD22 /// SNORD25 /// SNORD26 /// SNORD27 /// SNORD28 /// SNORD29 /// SNORD31 / Fold change vs veh, SNHG1 /// SNORD22 /// SNORD25 /// SNORD26 /// SNORD27 /// SNORD28 /// SNORD29 /// SNORD31 / Fold change (Aza/veh), C12orf56 (ProbeSet 11735607_a_at) / Fold change (ACY-1035/veh), C12orf56 (ProbeSet 11735607_a_at) / Fold change (Aza/veh), FGFR1OP (ProbeSet 11751329_s_at) / Fold change (ACY-1035/veh), FGFR1OP (ProbeSet 11751329_s_at) / Fold change (Aza/veh), VPS36 (ProbeSet 11739960_a_at) / Fold change (ACY-1035/veh), VPS36 (ProbeSet 11739960_a_at) / RFU SYPL1 (11715823_x_at) / Fold change /veh SYPL1 (11715823_x_at) / RFU IGFBP7 (11715501_s_at) / Fold change /veh IGFBP7 (11715501_s_at) / RFU REEP3 (11722064_at) / Fold change /veh REEP3 (11722064_at) / RFU IGLL1 (11728026_x_at) / Fold change /veh IGLL1 (11728026_x_at): dose or concentration left out as unconfirmed
Conditions: MV-4-11 cells, 48 hours

Nc1ccc(-c2cccs2)cc1NC(=O)c1ccc2c(c1)cc(C1CC1)n2CCN1CCOCC1 [ACY-1035]
RFU NR4A2 (11747474_a_at): 22.98 RFU
